Holding throughout (assay type): cell-based
In one test the target is T1, human TLR8 (Homo sapiens, UniProt Q9NR97).
T1 construct: host or cells: HEK-Blue cells
T1 sequence (Q9NR97 27-1041): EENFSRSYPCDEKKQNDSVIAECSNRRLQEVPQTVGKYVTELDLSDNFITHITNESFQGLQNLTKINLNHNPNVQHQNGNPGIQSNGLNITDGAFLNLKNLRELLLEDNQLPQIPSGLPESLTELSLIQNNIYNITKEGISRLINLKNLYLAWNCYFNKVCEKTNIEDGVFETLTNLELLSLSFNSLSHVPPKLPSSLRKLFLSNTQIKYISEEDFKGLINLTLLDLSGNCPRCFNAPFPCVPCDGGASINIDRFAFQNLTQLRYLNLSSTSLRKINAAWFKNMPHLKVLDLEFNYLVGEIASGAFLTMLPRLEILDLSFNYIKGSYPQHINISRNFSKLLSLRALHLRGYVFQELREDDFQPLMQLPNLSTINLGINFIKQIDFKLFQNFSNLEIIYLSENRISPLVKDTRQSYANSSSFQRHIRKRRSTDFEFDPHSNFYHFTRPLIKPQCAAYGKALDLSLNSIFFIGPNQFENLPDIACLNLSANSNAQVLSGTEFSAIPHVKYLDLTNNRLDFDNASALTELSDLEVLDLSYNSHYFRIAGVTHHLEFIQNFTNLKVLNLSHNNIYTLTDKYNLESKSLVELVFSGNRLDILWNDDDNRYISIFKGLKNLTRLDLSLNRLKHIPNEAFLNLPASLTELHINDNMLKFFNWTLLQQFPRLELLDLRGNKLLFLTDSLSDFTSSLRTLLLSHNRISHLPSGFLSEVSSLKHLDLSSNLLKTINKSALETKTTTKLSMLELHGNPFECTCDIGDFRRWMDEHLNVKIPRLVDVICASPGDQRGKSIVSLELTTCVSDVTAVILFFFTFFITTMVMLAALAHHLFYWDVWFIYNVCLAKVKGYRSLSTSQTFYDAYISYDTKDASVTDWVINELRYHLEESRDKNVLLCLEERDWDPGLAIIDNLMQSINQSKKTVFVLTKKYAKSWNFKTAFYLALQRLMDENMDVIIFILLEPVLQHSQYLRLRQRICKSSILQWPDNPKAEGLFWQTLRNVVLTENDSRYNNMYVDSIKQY
Kind of test: TLR8 inhibition reporter assay (HEK-Blue cells, SEAP reporter). The note with it: HEK-Blue cells overexpressing human TLR8; stimulated with R848 15.9 μM; SEAP read after 22 hour; dose range 0.05 nM-50 μM. In short, it runs like this:
(§1)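 HEK-Blue cells with NF-κB/AP-1-driven SEAP pre-treated 30 min with compounds (0.05 nM-50 μM), then stimulated with gardiquimod 7.5 μM (TLR7), R848 15.9 μM (TLR8) or ODN2006 5 nM (TLR9). SEAP read after 22 h at 37° C; % inhibition relative to agonist+DMSO and reference-inhibitor wells.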
(In a reporter assay the amount or activity of a reporter protein is the signal.)

The target in a further test is T2, human TLR9 (Homo sapiens, UniProt Q9NR96).
T2 construct: host or cells: HEK-Blue cells
T2 sequence (Q9NR96 26-1032): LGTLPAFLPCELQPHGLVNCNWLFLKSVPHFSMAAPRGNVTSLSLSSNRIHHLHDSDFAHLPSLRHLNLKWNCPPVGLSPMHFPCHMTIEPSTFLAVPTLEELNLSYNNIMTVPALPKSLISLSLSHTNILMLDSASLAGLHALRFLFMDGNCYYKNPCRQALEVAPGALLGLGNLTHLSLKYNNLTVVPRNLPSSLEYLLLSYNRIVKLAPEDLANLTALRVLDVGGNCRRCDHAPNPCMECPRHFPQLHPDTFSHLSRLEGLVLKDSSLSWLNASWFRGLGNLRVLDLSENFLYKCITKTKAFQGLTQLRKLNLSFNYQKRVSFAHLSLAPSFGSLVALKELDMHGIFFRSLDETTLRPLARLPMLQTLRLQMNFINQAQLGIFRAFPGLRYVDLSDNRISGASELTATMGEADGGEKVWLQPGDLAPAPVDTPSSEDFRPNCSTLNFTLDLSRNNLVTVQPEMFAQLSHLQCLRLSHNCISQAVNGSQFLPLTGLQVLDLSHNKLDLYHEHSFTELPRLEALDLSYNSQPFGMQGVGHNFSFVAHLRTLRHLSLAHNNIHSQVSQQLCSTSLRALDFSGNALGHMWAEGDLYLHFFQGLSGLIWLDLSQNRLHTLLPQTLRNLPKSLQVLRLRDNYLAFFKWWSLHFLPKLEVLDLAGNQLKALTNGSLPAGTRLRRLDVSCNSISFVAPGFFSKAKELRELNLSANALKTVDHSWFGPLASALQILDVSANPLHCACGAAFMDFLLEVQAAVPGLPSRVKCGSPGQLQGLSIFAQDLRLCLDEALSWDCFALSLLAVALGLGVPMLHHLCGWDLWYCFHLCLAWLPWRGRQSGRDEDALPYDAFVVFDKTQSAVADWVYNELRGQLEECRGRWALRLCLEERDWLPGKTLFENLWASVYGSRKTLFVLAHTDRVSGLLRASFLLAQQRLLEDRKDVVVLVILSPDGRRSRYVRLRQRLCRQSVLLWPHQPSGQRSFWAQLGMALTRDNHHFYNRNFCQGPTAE
Kind of test: TLR9 inhibition reporter assay (HEK-Blue cells, SEAP reporter). The note with it: HEK-Blue cells overexpressing human TLR9; stimulated with ODN2006 5 nM; SEAP read after 22 hour; dose range 0.05 nM-50 μM. A digest of the protocol: as §1

The target of another test is T3, human TLR7 (Homo sapiens, UniProt Q9NYK1).
T3 construct: host or cells: HEK-Blue cells
T3 sequence (Q9NYK1 27-1049): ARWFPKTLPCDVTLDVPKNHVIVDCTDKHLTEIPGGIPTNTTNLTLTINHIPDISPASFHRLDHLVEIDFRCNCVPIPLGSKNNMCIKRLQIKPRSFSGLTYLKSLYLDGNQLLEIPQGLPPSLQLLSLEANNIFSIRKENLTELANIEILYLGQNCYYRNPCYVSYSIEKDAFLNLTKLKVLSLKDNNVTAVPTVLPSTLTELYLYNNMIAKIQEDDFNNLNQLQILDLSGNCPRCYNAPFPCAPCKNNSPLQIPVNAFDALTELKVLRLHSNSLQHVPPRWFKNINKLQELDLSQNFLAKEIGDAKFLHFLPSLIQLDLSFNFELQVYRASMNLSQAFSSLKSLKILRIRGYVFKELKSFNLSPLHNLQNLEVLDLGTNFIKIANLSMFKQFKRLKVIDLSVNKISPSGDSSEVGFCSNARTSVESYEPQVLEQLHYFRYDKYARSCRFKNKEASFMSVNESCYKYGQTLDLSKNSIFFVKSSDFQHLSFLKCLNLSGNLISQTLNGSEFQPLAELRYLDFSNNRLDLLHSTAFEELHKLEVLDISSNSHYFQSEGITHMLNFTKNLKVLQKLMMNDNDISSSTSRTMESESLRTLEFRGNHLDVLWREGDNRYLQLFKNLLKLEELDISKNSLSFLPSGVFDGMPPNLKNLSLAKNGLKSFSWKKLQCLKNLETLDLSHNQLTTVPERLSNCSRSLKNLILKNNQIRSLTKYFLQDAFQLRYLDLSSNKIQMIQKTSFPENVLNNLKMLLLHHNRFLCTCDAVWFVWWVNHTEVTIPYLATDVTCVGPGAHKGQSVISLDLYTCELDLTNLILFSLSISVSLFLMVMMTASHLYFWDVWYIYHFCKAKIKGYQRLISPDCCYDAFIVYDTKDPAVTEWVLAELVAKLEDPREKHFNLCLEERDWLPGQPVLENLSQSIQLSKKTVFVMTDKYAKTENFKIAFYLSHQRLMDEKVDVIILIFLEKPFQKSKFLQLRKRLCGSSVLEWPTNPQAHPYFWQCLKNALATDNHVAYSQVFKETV
Kind of test: TLR7 inhibition reporter assay (HEK-Blue cells, SEAP reporter). The note with it: HEK-Blue cells overexpressing human TLR7; stimulated with gardiquimod 7.5 μM; SEAP read after 22 hour; dose range 0.05 nM-50 μM. In short, it runs like this: as §1

The values below come from patent US20260183275A1, “SUBSTITUTED QUINOLONE COMPOUNDS USEFUL AS INHIBITORS OF TLR9” (Bristol-Myers Squibb Company, priority 2022, published 2026).

As to `CC(C)N1CCN(c2ccc(-c3ccc4[nH]c(=O)c(-c5ccc(N(C)C6CN(C)C6)cc5)cc4c3)cc2)CC1` [Example 51, 3-{4-[methyl(1-methylazetidin-3-yl)amino]phenyl}-6-{4-[4-(propan-2-yl)piperazin-1-yl]phenyl}-1,2-dihydroquinolin-2-one], the IC50 (as a rule, the concentration needed to halve the response being measured) on human TLR8 worked out at 47 µM; on human TLR9, 242 nM; at human TLR7, 1.34 µM.

With `CC(C)N1CCC(c2ccc(-c3ccc4c(c3)cc(-c3ccc(N(C)C)cc3)c(=O)n4C)cc2)CC1` [Example 96, 3-[4-(dimethylamino)phenyl]-1-methyl-6-{4-[1-(propan-2-yl)piperidin-4-yl]phenyl}-1,2-dihydroquinolin-2-one], the figures for the 50% inhibitory concentration (IC50) at human TLR8, on human TLR9 and against human TLR7 were at least 50 µM, 1430 nM and 17.3 µM, respectively.

With `CC(C)N1CCC(c2ccc(-c3ccc4c(c3)cc(-c3ccccc3)c(=O)n4C)cc2)CC1` [Example 73, 1-methyl-3-phenyl-6-{4-[1-(propan-2-yl)piperidin-4-yl]phenyl}-1,2-dihydroquinolin-2-one], the IC50 against human TLR8 came to 0.763 µM; on human TLR9, 219 nM; at human TLR7, 1.48 µM.

In the case of `Cn1c(=O)c(-c2ccc(S(C)(=O)=O)cc2)cc2cc(-c3ccc(C4CCN(C5COC5)CC4)cc3)ccc21` [Example 87, 3-(4-methanesulfonylphenyl)-1-methyl-6-{4-[1-(oxetan-3-yl)piperidin-4-yl]phenyl}-1,2-dihydroquinolin-2-one], the half-inhibitory concentration (IC50) was 30 µM against human TLR8, 416 nM against human TLR9 and at least 50 µM against human TLR7.

Consider `CC(C)N1CCN(c2ccc(-c3ccc4[nH]c(=O)c(-c5cccc(F)c5)cc4c3)cc2)CC1` [Example 47, 3-(3-fluorophenyl)-6-{4-[4-(propan-2-yl)piperazin-1-yl]phenyl}-1,2-dihydroquinolin-2-one], for which the 50% inhibitory concentration (IC50) at human TLR8 is at least 50 µM; on human TLR9 it was 857 nM; on human TLR7, 8.62 µM.

For `CC(C)N1CCN(c2ccc(-c3ccc4[nH]c(=O)c(-c5ccc(C(N)=O)cc5)cc4c3)cc2)CC1` [Example 53, 4-(2-oxo-6-{4-[4-(propan-2-yl)piperazin-1-yl]phenyl}-1,2-dihydroquinolin-3-yl)benzamide], the half-maximal inhibitory concentration (IC50) at human TLR8 worked out at 1.24 µM; against human TLR9, 257 nM; on human TLR7, 4.52 µM.

On to `CC(C)N1CCN(c2ccc(-c3ccc4[nH]c(=O)c(-c5ccc(C(=O)N6CCOCC6)cc5)cc4c3)cc2)CC1` [Example 55, 3-[4-(morpholine-4-carbonyl)phenyl]-6-{4-[4-(propan-2-yl)piperazin-1-yl]phenyl}-1,2-dihydroquinolin-2-one], for which the IC50 is at least 50 µM at human TLR8, 382 nM against human TLR9 and at least 50 µM against human TLR7.

Regarding `CC(C)N1CCN(c2ccc(-c3ccc4[nH]c(=O)c(-c5cccc(C(F)(F)F)c5)cc4c3)cc2)CC1` [Example 45, 6-{4-[4-(propan-2-yl)piperazin-1-yl]phenyl}-3-[3-(trifluoromethyl)phenyl]-1,2-dihydroquinolin-2-one], the half-inhibitory concentration (IC50) at human TLR8 is at least 50 µM; at human TLR9 it was 734 nM; against human TLR7 it was at least 50 µM.

Turning to `CC(C)N1CCN(c2ccc(-c3ccc4c(c3)cc(-c3ccc(N(C)S(C)(=O)=O)cc3)c(=O)n4C)cc2)CC1` [Example 23, N-methyl-N-[4-(1-methyl-2-oxo-6-{4-[4-(propan-2-yl)piperazin-1-yl]phenyl}-1,2-dihydroquinolin-3-yl)phenyl]methanesulfonamide], the IC50 on human TLR8 came out at 36 µM; against human TLR9, 221 nM; on human TLR7, 5.51 µM.

As to `CC(C)N1CCN(c2ccc(-c3ccc4[nH]c(=O)c(-c5nn(C)c6ccccc56)cc4c3)cc2)CC1` [Example 35, 3-(1-methyl-1H-indazol-3-yl)-6-{4-[4-(propan-2-yl)piperazin-1-yl]phenyl}-1,2-dihydroquinolin-2-one], the IC50 came out at 14.1 µM on human TLR8, 314 nM at human TLR9 and 1.29 µM at human TLR7.

Take `CC(C)N1CCN(c2ccc(-c3ccc4[nH]c(=O)c(-c5ccc(N6CCCC6=O)cc5)cc4c3)cc2)CC1` [Example 56, 3-[4-(2-oxopyrrolidin-1-yl)phenyl]-6-{4-[4-(propan-2-yl)piperazin-1-yl]phenyl}-1,2-dihydroquinolin-2-one]: the values for the IC50 against human TLR8, against human TLR9 and on human TLR7 were at least 50 µM, 400 nM and 5.98 µM, respectively.

As to `O=c1[nH]c2ccc(-c3ccc(C4CCN(C5COC5)CC4)cc3)cc2cc1-c1ccc(OC(F)F)cc1` [Example 91, 3-[4-(difluoromethoxy)phenyl]-6-{4-[1-(oxetan-3-yl)piperidin-4-yl]phenyl}-1,2-dihydroquinolin-2-one], the figures for the IC50 on human TLR8, against human TLR9 and at human TLR7 were at least 50 µM, 512 nM and at least 50 µM, respectively.
